Columns and labels:
[1] = tested on: A549 cells; experiment: Gene expression microarray analysis, A549; format: cell-based, human; settings: 48 hours; for Downregulated Genes: AZA-Specific / DAC-Specific Genes (number) / Upregulated Genes: AZA-Specific / DAC-Specific Genes (number) / Downregulated Genes: Genes in Common (number) / Upregulated Genes: Genes in Common (number) / Regulation of genes in the Response to DNA Damage Stimulus/DNA Repair biogroup: A549; for Downregulated Genes: Genes in Common (number) / Upregulated Genes: Genes in Common (number): regulated by both AZA and DAC;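 on Downregulated Genes: AZA-Specific / DAC-Specific Genes (number): drug dose range 0.3 to 3 µM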;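 on Downregulated Genes: Genes in Common (number): drug dose range 0.3 to 3 µM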;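 on Upregulated Genes: AZA-Specific / DAC-Specific Genes (number): drug dose range 0.3 to 3 µM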;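 on Upregulated Genes: Genes in Common (number): drug dose range 0.3 to 3 µM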
Description: Cells were lysed using the TRIzol reagent (Life Technologies Corporation) and total RNA was isolated using miRNeasy (Qiagen). Double-stranded cDNA and biotin-labeled cRNA were synthesized using 100 ng of total RNA using Ambion's MessageAmp Premier RNA Amplification Kit (ABI; Foster City, Calif.). Biotin-labeled cRNA, at 10 μg, was fragmented and hybridized to each human U133A 2.0 genechip (Affymetrix; Santa Clara, Calif.). The GC-RMA algorithm was used for normalization and all analyses were done using GeneSpring 7.3 (Agilent; Santa Clara, Calif.). Averaged signals from biological duplicate samples were used to determine fold change (Treated vs. Untreated), with an absolute fold change of ≧1.7 defining regulated genes. NextBio was used to identify regulated Gene Ontology biogroups from lists of regulated genes. The top 15 biogroups are those with the lowest p-values calculated within NextBio.
The number of genes modulated in common between the two drugs was low.
Functional groupings of the modulated genes were determined using Gene Ontology classifications in Nextbio (http://www.nextbio.com/).

[2] = administered at 15 mg/m^2; cited from earlier work
[3] = tested on: NSCLC cells; experiment: Western analysis of DNA damage and cell death markers, summary; format: cell-based; settings: H460, A549, H1299 studies
Description: These studies also examined apoptosis using an assay for PARP cleavage. Cells studied included H460, A549, and H1299 cells.
For western analyses of protein levels, cells were washed with PBS and lysed with RIPA buffer (Cell Signaling Technology, Inc.; Danvers, Mass.) containing 350 mM NaCl and 0.1% SDS. Cell lysates were sonicated with two 5-second bursts under low amplitude (20%) using the Digital Sonic Dismembrator (Thermo Fisher Scientific, Inc.; Waltham, Mass.). Proteins were separated on 4-12% Bis-Tris NuPAGE gels (Life Technologies Corporation) and transferred to nitrocellulose membranes. DNMT1, phos-Histone-H2AX(Ser139), total Histone-H2AX, cleaved-PARP, p21, p53, and alpha-tubulin were detected using the Li-Cor Odyssey imaging system (Li-Cor Biotechnology; Lincoln, Nebr.), following incubation with the appropriate primary and secondary antibodies. The phos-Histone-H2AX(Ser139), cleaved-PARP, and p21 antibodies were from Cell Signaling Technology, Inc. The p53 and total Histone-H2AX (C-20) antibodies were from Santa Cruz Biotechnology, Inc. (Santa Cruz, Calif.). The alpha-tubulin and DNMT1 antibodies were purchased from EMD Chemicals, Inc. (Gibbstown, N.J.) and Abcam, Inc. (Cambridge, Mass.), respectively. The goat anti-Rabbit IRDye 680, goat anti-Mouse IRDye 800CW, and donkey anti-Goat IRDye 800CW secondary antibodies were from Li-Cor Biotechnology.

Structure (SMILES) | Fold more genes modulated than AZA ([1]; A549 (stated for A549 and H1299 together), 0.3 μM) | Downregulated Genes: AZA-Specific / DAC-Specific Genes (number) ([1]; 0.3 μM) | Upregulated Genes: AZA-Specific / DAC-Specific Genes (number) ([1]; 0.3 μM, fold change ≧1.7) | Downregulated Genes: Genes in Common (number) ([1]; 0.3 μM) | Upregulated Genes: Genes in Common (number) ([1]; 0.3 μM) | Downregulated Genes: AZA-Specific / DAC-Specific Genes (number) ([1]; 1.0 μM) | Upregulated Genes: AZA-Specific / DAC-Specific Genes (number) ([1]; 1.0 μM) | Downregulated Genes: Genes in Common (number) ([1]; 1.0 μM) | Upregulated Genes: Genes in Common (number) ([1]; 1.0 μM) | Downregulated Genes: AZA-Specific / DAC-Specific Genes (number) ([1]; 3.0 μM) | Upregulated Genes: AZA-Specific / DAC-Specific Genes (number) ([1]; 3.0 μM) | Downregulated Genes: Genes in Common (number) ([1]; 3.0 μM) | Upregulated Genes: Genes in Common (number) ([1]; 3.0 μM) | Regulation of genes in the Response to DNA Damage Stimulus/DNA Repair biogroup [1] | Plasma levels [2] | Induction of DNA damage and cell death markers, concentration comparison [3]
Nc1ncn([C@H]2C[C@H](O)[C@@H](CO)O2)c(=O)n1 [DAC, 5-aza-2′-deoxycytidine] | 4- to 20 fold | 55 | 139 | 11 | 17 | 111 | 261 | 30 | 45 | 239 | 413 | 55 | 66 | general downregulation | 500 nM | –
Nc1ncn([C@@H]2O[C@H](CO)[C@@H](O)[C@H]2O)c(=O)n1 [AZA, 4-amino-1-β-D-ribofuranosyl-1,3,5-triazin-2(1H)-one] | – | 14 | 16 | 11 | 17 | 273 | 279 | 30 | 45 | 560 | 636 | 55 | 66 | general upregulation | – | at lower concentrations than DAC
